From patent publication EP4603105A1, “PHARMACEUTICAL COMPOSITION CONTAINING CYCLIC COMPOUND HAVING SELECTIVE KRAS INHIBITORY EFFECT AGAINST HRAS AND NRAS” (CHUGAI SEIYAKU KABUSHIKI KAISHA, priority 2022, dated 2024)

What was measured:
[1] = biological target: GDP-bound NRAS wild-type protein (Homo sapiens, UniProt P01111); test: Binding to NRAS by surface plasmon resonance (SPR), KD and KD ratio to KRAS
Summary of the method: (§1)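 Single-cycle kinetics on GDP-loaded biotin-Avi RAS captured to ~100–300 RU; 75 s ascending injections, 100 µL/min, 30°C. HBS pH 7.4 + 10 mM MgCl2/10 µM GDP/4% DMSO. 1:1 fit, KD.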

[2] = biological target: HRAS wild-type protein (Homo sapiens, UniProt P01112); test: Binding to HRAS by surface plasmon resonance (SPR), KD and KD ratio to KRAS
Summary of the method: as §1

[3] = test system: human lung cancer strain NCI-H441; assay type: cell-based
Summary of the method: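 Proliferation was scored by […] measured after the reagent was added to cultures kept at 37°C in 5% carbon dioxide.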

[4] = ratio of the KD value with respect to GDP-bound NRAS wild-type protein to the KD value with respect to KRAS
[5] = ratio of the KD value with respect to HRAS wild-type protein to the KD value with respect to KRAS
[6] = ratio of KD value for GDP-bound NRAS wild-type protein to KD value for KRAS (SPR)
[7] = ratio of KD value for HRAS wild-type protein to KD value for KRAS (SPR)

Sequence of HRAS wild-type protein (P01112 whole entry): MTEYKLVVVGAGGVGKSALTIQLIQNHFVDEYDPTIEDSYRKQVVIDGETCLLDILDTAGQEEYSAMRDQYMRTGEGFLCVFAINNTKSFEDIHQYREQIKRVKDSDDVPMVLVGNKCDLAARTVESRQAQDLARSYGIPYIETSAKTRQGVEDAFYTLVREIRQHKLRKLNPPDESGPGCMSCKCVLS
Sequence of GDP-bound NRAS wild-type protein (P01111 whole entry): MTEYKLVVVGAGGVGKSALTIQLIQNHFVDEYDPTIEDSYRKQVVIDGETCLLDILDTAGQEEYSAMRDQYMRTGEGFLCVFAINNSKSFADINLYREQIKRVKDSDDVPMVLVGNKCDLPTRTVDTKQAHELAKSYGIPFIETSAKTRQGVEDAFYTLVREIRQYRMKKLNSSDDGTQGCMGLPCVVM

SMILES	IC50 [3] [nM]	NRAS /KRAS [1, 4]	HRAS /KRAS [2, 5]	NRAS /KRAS [1, 6]	HRAS /KRAS [2, 7]	NRAS /KRAS ([1]; ratio of KD for GDP-bound NRAS wild-type protein to KD for KRAS)	HRAS /KRAS ([2]; ratio of KD for HRAS wild-type protein to KD for KRAS)
CC[C@H](C)[C@@H]1NC(=O)[C@H](CC(C)C)N(C)C(=O)C[C@@H](C(=O)N2CCOCC2)N(C)C(=O)[C@H](C2CCCC2)N(C)C(=O)C2(CCCC2)NC(=O)[C@@H]2CCCN2C(=O)[C@H](CCc2cc(F)c(C(F)(F)F)c(F)c2)NC(=O)CN(C)C(=O)[C@H](Cc2ccc(C(F)(F)F)cc2)N2CCCC[C@@H](C2=O)N(C)C(=O)[C@H](C)NC1=O [PP0543]	41.5	B (a compound having 3 or more and less than 10 is denoted as B)	B (a compound having 3 or more and less than 10 is denoted as B)	–	–	–	–
CCO[C@@H]1C[C@H]2C(=O)NC3(CC(C)(C)C3)C(=O)N(C)[C@@H](C3CCCC3)C(=O)N3CCC[C@@H]3CC(=O)N(C)[C@@H](CC)C(=O)N[C@@H]([C@@H](C)CC)C(=O)N(C)CC(=O)N(C)[C@H]3C/C=C\CCN(C3=O)[C@@H](Cc3ccc(C(F)(F)F)cc3)C(=O)N(C)CC(=O)N[C@@H](CCc3cc(F)c(C(F)(F)F)c(F)c3)C(=O)N2C1 [PP1606]	12.6	–	–	B (a compound having 3 or more and less than 10 is denoted as B)	B (a compound having 3 or more and less than 10 is denoted as B)	–	–
CCC[C@H]1C(=O)N[C@@H]([C@@H](C)CC)C(=O)N(C2CC2)CC(=O)N(C)[C@H]2C/C=C\CCN(C2=O)[C@@H](Cc2ccc(C)cc2)C(=O)N(C)CC(=O)N[C@@H](CCc2ccc(C(F)(F)F)c(OC)c2)C(=O)N2C[C@H](OCC)C[C@H]2C(=O)N(C)C2(CCC2)C(=O)N(C)[C@@H](C2CCCC2)C(=O)N(C)[C@H](C(=O)N2CCCCC2)CC(=O)N1C [PP3096]	35.8	–	–	–	–	A (a compound having 10 or more and less than 20 is denoted as A)	A (a compound having 10 or more and less than 20 is denoted as A)
CC[C@H](C)[C@@H]1NC(=O)[C@H](CC(C)C)N(C)C(=O)C[C@@H](C(=O)N2CCOCC2)N(C)C(=O)[C@H](CC(F)(F)F)N(C)C(=O)C2(CCCC2)NC(=O)[C@@H]2CCCN2C(=O)[C@H](CCc2cc(F)c(C(F)(F)F)c(F)c2)NC(=O)CN(C)C(=O)[C@H](Cc2ccc(C(F)(F)F)cc2)N2CCCCC[C@@H](C2=O)N(C)C(=O)CN(C)C1=O [PP0506]	705	B (a compound having 3 or more and less than 10 is denoted as B)	B (a compound having 3 or more and less than 10 is denoted as B)	–	–	–	–

Continued by falling IC50 [3], values first:

IC50 [3] [nM]	SMILES	NRAS /KRAS [1, 4]	HRAS /KRAS [2, 5]	NRAS /KRAS [1, 6]	HRAS /KRAS [2, 7]	NRAS /KRAS ([1]; ratio of KD for GDP-bound NRAS wild-type protein to KD for KRAS)	HRAS /KRAS ([2]; ratio of KD for HRAS wild-type protein to KD for KRAS)
143	CCOC[C@H]1C(=O)N[C@@H]([C@@H](C)CC)C(=O)N(C)CC(=O)N(C)[C@H]2C/C=C\CCN(C2=O)[C@@H](CC2CCC(F)(F)CC2)C(=O)N(C)CC(=O)N[C@@H](CCc2ccc(C(F)(F)F)c(OC)c2)C(=O)N2C[C@H](OCC)C[C@H]2C(=O)N(C)C2(CCC2)C(=O)N(C)[C@@H](C(CC)CC)C(=O)N(C)[C@H](C(=O)N(C)C)CC(=O)N1C [PP2347]	A (a compound having 10 or more and less than 20 is denoted as A)	A (a compound having 10 or more and less than 20 is denoted as A)	–	–	–	–
78.6	CCO[C@@H]1C[C@H]2C(=O)NC3(CCC3)C(=O)N(C)[C@@H](C3CCCC3)C(=O)N(C)[C@H](C(C)C)CC(=O)N(C)[C@@H](CC)C(=O)N[C@@H]([C@@H](C)CC)C(=O)N(C)CC(=O)N(C)[C@H]3C/C=C\CCN(C3=O)[C@@H](CC3CCCCC3)C(=O)N(C)CC(=O)N[C@@H](CCc3cc(F)c(C(F)(F)F)c(F)c3)C(=O)N2C1 [PP1601]	–	–	B (a compound having 3 or more and less than 10 is denoted as B)	A (a compound having 10 or more and less than 20 is denoted as A)	–	–
4.4	CCCN(C)C(=O)[C@@H]1CC(=O)N(C)[C@@H](CC(F)(F)F)C(=O)N[C@@H]([C@@H](C)CC)C(=O)N(C)CC(=O)N(C)[C@H]2C/C=C\CCN(C2=O)[C@@H](Cc2ccc(C(F)(F)F)cc2)C(=O)N(C)CC(=O)N[C@@H](CCc2cc(F)c(C(F)(F)F)c(F)c2)C(=O)N2C[C@H](OCC)C[C@H]2C(=O)NC2(CC(F)(F)C2)C(=O)N(C)[C@@H](C2CCCC2)C(=O)N1C [PP1734]	–	–	A (a compound having 10 or more and less than 20 is denoted as A)	A (a compound having 10 or more and less than 20 is denoted as A)	–	–
